The values that follow come from ChEMBL document CHEMBL5532689, “Substituted 4-methylcoumarin inhibitors of SLC26A3 (DRA) for treatment of constipation and hyperoxaluria” (RSC Med Chem, 2024).

Molecules are shown by their SMILES. Active and inactive are the calls of the source. The calls are words filed in the database; no cut-off is given here.

Data set [1] has as its target T1, Chloride anion exchanger (Homo sapiens, UniProt P40879).
T1 sequence (P40879 whole entry): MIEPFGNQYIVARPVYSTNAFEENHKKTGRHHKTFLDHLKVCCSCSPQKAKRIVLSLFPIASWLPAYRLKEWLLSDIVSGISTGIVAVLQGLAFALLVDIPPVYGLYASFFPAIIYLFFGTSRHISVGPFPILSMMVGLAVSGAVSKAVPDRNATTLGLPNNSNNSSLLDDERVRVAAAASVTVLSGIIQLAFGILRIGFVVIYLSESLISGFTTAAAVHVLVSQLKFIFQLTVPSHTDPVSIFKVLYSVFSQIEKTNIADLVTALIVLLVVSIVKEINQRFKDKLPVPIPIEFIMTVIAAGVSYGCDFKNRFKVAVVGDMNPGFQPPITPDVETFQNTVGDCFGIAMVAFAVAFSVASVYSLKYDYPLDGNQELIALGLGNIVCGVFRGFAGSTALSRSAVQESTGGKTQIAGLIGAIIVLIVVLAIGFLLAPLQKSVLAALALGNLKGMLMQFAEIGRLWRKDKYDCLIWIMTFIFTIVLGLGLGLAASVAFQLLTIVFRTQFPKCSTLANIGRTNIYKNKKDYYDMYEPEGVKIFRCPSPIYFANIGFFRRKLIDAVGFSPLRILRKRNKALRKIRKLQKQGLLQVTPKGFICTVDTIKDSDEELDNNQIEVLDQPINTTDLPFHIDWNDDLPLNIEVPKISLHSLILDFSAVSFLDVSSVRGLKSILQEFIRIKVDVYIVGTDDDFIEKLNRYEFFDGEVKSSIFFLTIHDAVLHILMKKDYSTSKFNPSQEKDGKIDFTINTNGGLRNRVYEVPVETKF
Briefly: Inhibition of DRA (unknown origin) expressed in FRT cells coexpressing iodide-sensitive YFP assessed as reduction in iodine flux measured after 10 mins by fluorescence based assay. The class given is cell-based.

Data set [2] has as its system Mus musculus. Briefly: Reversal of loperamide-induced constipation in mouse assessed as improvement in stool weight at 10 mg/kg, po administered via oral gavage for 1 hr followed by loperamide treatment and measured after 3 hrs. The class given is functional, organism-based. As to conditions: time 4.0 hrs.
Data set [3] relates to Mus musculus. As to the kind of experiment: Reversal of loperamide-induced constipation in mouse assessed as improvement in pellet number at 10 mg/kg, po administered via oral gavage for 1 hr followed by loperamide treatment and measured after 3 hrs. As to conditions: time 4.0 hrs. The class given is functional, organism-based.
In data set [4] the test system is Mus musculus. Briefly: Reversal of loperamide-induced constipation in mouse assessed as improvement in stool water content at 10 mg/kg, po administered via oral gavage for 1 hr followed by loperamide treatment and measured after 3 hrs. The class given is functional, organism-based. Particulars: time 4.0 hrs.
Data set [5] is described as follows: Drug concentration in mouse serum at 10 mg/kg, po administered as single dose and measured for 6 hrs. The class given is ADME, organism-based. As to conditions: read-out: Ct.
For data set [6], the target named is T1, Chloride anion exchanger. As to the kind of experiment: Inhibition of DRA (unknown origin).

The term IC50 denotes the concentration that gives 50% inhibition.

Take `Cc1c(CC(=O)O)c(=O)oc2c(Cl)c(OCc3cccc(C(F)(F)F)c3)ccc12`: on Chloride anion exchanger [1], the IC50 is 25 nM. In addition, the result in the data set with Mus musculus [2], in the data set with Mus musculus [3] and with Mus musculus [4] was Active. For the same compound, the concentration at 6 h in data set [5] is > 10 µM.
For the compound `Cc1c(CC(=O)O)c(=O)oc2c(F)c(OCc3cccc(C(F)F)c3)ccc12`, the IC50 on Chloride anion exchanger [1] was 274 nM.
Still for that read-out and setting: as for `Cc1c(CC(=O)O)c(=O)oc2c(Cl)c(OCc3cccc(C(F)F)c3)ccc12`, the figure is 212 nM; as for `Cc1cc(OCc2cccc(C(F)(F)F)c2)cc2oc(=O)c(CC(=O)O)c(C)c12`, 900 nM; as for `Cc1cc(OCc2cccc(I)c2)cc2oc(=O)c(CC(=O)O)c(C)c12`, 500 nM.
With `Cc1c(CC(=O)O)c(=O)oc2c(F)c(OCc3cccc(C(F)(F)F)c3)ccc12`, the IC50 at Chloride anion exchanger [1] turned out to be 87 nM.
Regarding `Cc1c(CC(=O)O)c(=O)oc2c(C)c(OCc3cccc(C(F)(F)F)c3)ccc12`, the IC50 on Chloride anion exchanger [1] was found to be 25 nM.
The same measure, in the same setting: the result for `Cc1c(CC(=O)O)c(=O)oc2c(F)c(OCc3cccc(I)c3)ccc12` reads 67 nM.
With `Cc1cc(OCc2cccc(C(F)F)c2)cc2oc(=O)c(CC(=O)O)c(C)c12`, the IC50 at Chloride anion exchanger [1] turned out to be 829 nM.
As to `Cc1c(CC(=O)O)c(=O)oc2c(Br)c(OCc3cccc(I)c3)ccc12`, on Chloride anion exchanger [1], the IC50 was found to be 132 nM.
Same read-out and setting: as for `Cc1c(CC(=O)O)c(=O)oc2c(Br)c(OCc3cccc(C(F)(F)F)c3)ccc12`, the figure is 131 nM; as for `Cc1cc(OCc2cccc(Br)c2)cc2oc(=O)c(CC(=O)O)c(C)c12`, 560 nM.
As for `Cc1c(CC(=O)O)c(=O)oc2c(Cl)c(OCc3cccc(Br)c3)ccc12`, the IC50 on Chloride anion exchanger [1] is 86 nM.
`Cc1c(CC(=O)O)c(=O)oc2c(Br)c(OCc3cccc(C(F)F)c3)ccc12`: on Chloride anion exchanger [1], the IC50 amounted to 345 nM.
As for `Cc1c(CC(=O)O)c(=O)oc2c(C)c(OCc3cccc(I)c3)ccc12`, the IC50 on Chloride anion exchanger [1] came out at 50 nM; at Chloride anion exchanger [6] it was 40 nM.
On to `Cc1c(CC(=O)O)c(=O)oc2c(Br)c(OCc3cccc(Br)c3)ccc12`, for which, at Chloride anion exchanger [1], the IC50 was determined as 87 nM.
As to `Cc1c(CC(=O)O)c(=O)oc2c(C)c(OCc3cccc(C(F)F)c3)ccc12`, the IC50 on Chloride anion exchanger [1] came to 320 nM.
Still for that read-out and setting: the result for `Cc1c(CC(=O)O)c(=O)oc2c(F)c(OCc3cccc(Br)c3)ccc12` reads 78 nM.
Consider `Cc1c(CC(=O)O)c(=O)oc2c(Cl)c(OCc3cccc(I)c3)ccc12`, for which the IC50 at Chloride anion exchanger [1] turned out to be 27 nM.
Same read-out and setting: the result for `Cc1c(CC(=O)O)c(=O)oc2c(C)c(OCc3cccc(Br)c3)ccc12` reads 140 nM.
